Results on three molecules are retold here after patent publication EP0556482B1, “Propyl endopeptidase inhibitor” (SNOW BRAND MILK PRODUCTS CO., LTD., priority 1991, dated 1993).

The test system of series [1] is mouse. As to conditions: in vivo, ip; cited from earlier work.
Series [2] has as its system rat. As to conditions: in vivo, iv; cited from earlier work.
For series [3], the target named is T1, prolyl endopeptidase derived from human placenta (Homo sapiens, UniProt P48147).
T1 sequence (P48147 1-710): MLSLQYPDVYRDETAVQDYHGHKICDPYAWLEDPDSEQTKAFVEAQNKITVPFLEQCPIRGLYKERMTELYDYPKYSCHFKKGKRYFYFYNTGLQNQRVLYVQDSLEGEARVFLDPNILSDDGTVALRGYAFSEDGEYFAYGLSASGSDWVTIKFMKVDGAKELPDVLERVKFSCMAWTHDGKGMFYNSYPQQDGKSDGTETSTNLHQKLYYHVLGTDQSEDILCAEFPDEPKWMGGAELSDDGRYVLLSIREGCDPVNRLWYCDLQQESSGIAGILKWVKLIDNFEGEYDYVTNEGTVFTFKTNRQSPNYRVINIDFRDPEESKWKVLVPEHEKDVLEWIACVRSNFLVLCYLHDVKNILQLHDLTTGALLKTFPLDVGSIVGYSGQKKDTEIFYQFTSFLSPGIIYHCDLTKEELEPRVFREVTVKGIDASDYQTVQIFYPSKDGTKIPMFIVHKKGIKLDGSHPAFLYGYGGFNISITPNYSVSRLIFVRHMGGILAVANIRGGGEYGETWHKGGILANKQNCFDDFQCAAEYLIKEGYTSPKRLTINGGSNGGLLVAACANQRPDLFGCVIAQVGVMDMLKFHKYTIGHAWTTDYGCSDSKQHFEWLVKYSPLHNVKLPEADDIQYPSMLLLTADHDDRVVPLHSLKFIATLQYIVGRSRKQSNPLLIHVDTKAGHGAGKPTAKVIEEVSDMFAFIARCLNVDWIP
In words: Prolyl endopeptidase inhibitive activity, human placenta enzyme (fluorometric, Z-Gly-Pro-7-AMC substrate). The class given is biochemical. Details: obtaining a supernatant, from which microsome fractions had been removed, as a prolyl endopeptidase fraction; from tissue; host or cells: human placenta, cytosol fraction (104,000 x g supernatant), crude enzyme. The protocol: (§1) The inhibitive activity of enduracidin A was measured by using a methanol solution of this compound.
(§2) The prolyl endopeptidase inhibitive activity in the present invention was measured by the following method. Prolyl endopeptidase from human placenta was prepared according to the method for preparing aromatase [Chem. Pharm. […] The placenta tissues were pulverized and homogenized with a 67 mM potassium phosphate buffer (pH 7.5) containing 5 mM DTT and 0.25 M sucrose. The homogenized solution was centrifuged at 10,000 x g for 30 minutes to obtain a supernatant.
To carry out the enzyme reaction, 0.01 ml of each sample dissolved in methanol in various concentrations and 0.01 ml of the placenta cytosol fraction were added to 0.96 ml of a 0.1 M Tris-HCl buffer solution (pH 7.0), and the resulting solution was mixed and incubated at 37°C for 5 minutes. The reaction was initiated by the addition of 0.02 ml of a 2 mM solution of synthesized substrate, Z-Gly-Pro-7-AMC (a product of Cambridge Research Biochemicals), dissolved in 40% dioxane to said solution, and continued for 10 minutes at 37°C. […]
(§3) The inhibition rate was determined by the formula, [(A-B)/A] x 100 (%), wherein A represents a fluorescent concentration of liberated 7-AMC in the reaction of the control and B is a fluorescent concentration of liberated 7-AMC in the reaction to which a sample was added.

Series [4] has as its target T2, prolyl endopeptidase derived from Flavobacterium (Elizabethkingia meningoseptica, UniProt P27028).
T2 construct: purchased Seikagaku Kogyo Co
In kind it is biochemical. The settings on record: Table 1; enzyme from Flavobacterium; read-out: IC₅₀ (µM) Flavobacterium. The protocol:
as §1, §3

Series [5] deals with T1, prolyl endopeptidase derived from human placenta. In words: Prolyl endopeptidase inhibitive activity, human placenta enzyme (fluorometric, Z-Gly-Pro-7-AMC substrate). In kind it is biochemical. More on the design: obtaining a supernatant, from which microsome fractions had been removed, as a prolyl endopeptidase fraction; from tissue; host or cells: human placenta, cytosol fraction (104,000 x g supernatant). The protocol: as §1, §2
To carry out the enzyme reaction, 0.01 ml of each sample dissolved in methanol in various concentrations and 0.01 ml of the placenta cytosol fraction were added to 0.96 ml of a 0.1 M Tris-HCl buffer solution (pH 7.0), and the resulting solution was mixed and incubated at 37°C for 5 minutes. The reaction was initiated by the addition of 0.02 ml of a 2 mM solution of synthesized substrate, Z-Gly-Pro-7-AMC (a product of Cambridge Research Biochemicals), dissolved in 40% dioxane to said solution, and continued for 10 minutes at 37°C. After the reaction, 0.5 ml of a reaction termination agent (10 g of Triton X-100/95 ml, 1 M acetate buffer, pH 4.0) and 2 ml of water were added to measure 7-AMC (7-amino-4-methylcoumarin) liberated by the reaction at an excitation wavelength of 380 nm and an emission wavelength of 460 nm.
as §3

[6] abbreviates: comparison of both enzymes, in words.

Like-named read-outs stand apart in the source and are kept apart here. *1 amine or outer side, *2 acyl side, *3 side chain or, on linkers, in order; H or OH if unused. Where a SMILES comes first, the peptide text is derived from it. Bridges are numbered along the chain shown (N, C = ends). [ ]: non-standard residue; d: D form. The star is where a group is joined. Undeca(2Z,4E)dienoyl(10-Me) = CC(C)CCCC/C=C/C=C\C(=O)*; Phg(3,5-Cl2-4-OH) = N[C@H](C(=O)O)c1cc(Cl)c(O)c(Cl)c1; X1 = N=C1NC[C@@H](C[C@@H](N[*:1])C(=O)[*:2])N1; X2 = N=C1NC[C@@H](C[C@H](N[*:1])C(=O)[*:2])N1; d(aThr) = C[C@@H](O)[C@@H](N)C(=O)O; dHpg = N[C@@H](C(=O)O)c1ccc(O)cc1; Hpg = N[C@H](C(=O)O)c1ccc(O)cc1; Cit = NC(=O)NCCC[C@H](N)C(=O)O; aThr = C[C@H](O)[C@H](N)C(=O)O; dOrn = NCCC[C@@H](N)C(=O)O

T2 sequence (P27028 21-705): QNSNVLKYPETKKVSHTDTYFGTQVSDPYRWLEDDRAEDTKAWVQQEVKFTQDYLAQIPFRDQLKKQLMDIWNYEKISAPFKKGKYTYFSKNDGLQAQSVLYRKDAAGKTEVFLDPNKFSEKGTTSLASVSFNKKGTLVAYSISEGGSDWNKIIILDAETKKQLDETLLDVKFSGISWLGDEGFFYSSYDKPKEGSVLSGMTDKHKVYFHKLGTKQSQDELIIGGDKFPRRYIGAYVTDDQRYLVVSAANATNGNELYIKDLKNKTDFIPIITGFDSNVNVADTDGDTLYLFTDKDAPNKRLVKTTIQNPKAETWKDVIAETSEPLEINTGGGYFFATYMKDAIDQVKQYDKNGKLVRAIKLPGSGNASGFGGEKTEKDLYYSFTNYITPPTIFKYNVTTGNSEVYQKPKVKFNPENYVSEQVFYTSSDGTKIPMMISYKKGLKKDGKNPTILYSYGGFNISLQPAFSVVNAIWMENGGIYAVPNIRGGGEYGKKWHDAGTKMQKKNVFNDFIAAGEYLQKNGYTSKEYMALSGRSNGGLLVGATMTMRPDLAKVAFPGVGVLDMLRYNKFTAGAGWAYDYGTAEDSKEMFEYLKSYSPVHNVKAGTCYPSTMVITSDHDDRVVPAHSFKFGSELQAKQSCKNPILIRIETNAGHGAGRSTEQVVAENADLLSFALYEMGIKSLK

As to `CC(C)CCCC/C=C/C=C\C(=O)N[C@@H](CC(=O)O)C(=O)N[C@@H]1C(=O)N[C@H](c2ccc(O)cc2)C(=O)N[C@H](CCCN)C(=O)N[C@H]([C@@H](C)O)C(=O)N[C@@H](c2ccc(O)cc2)C(=O)N[C@H](c2ccc(O)cc2)C(=O)N[C@@H]([C@H](C)O)C(=O)N[C@@H](CCCNC(N)=O)C(=O)N[C@H](C[C@@H]2CNC(=N)N2)C(=O)N[C@@H](c2ccc(O)cc2)C(=O)N[C@H](CO)C(=O)N[C@@H](c2cc(Cl)c(O)c(Cl)c2)C(=O)NCC(=O)N[C@@H](C[C@@H]2CNC(=N)N2)C(=O)N[C@H](C)C(=O)N[C@@H](c2ccc(O)cc2)C(=O)O[C@@H]1C` [Enduracidin A] ({Undeca(2Z,4E)dienoyl(10-Me)}-DT[dHpg][dOrn][d(aThr)][Hpg][dHpg][aThr][Cit][X1][Hpg][dS][Phg(3,5-Cl2-4-OH)]G[X2][dA][Hpg]; ester 2-C), the “acute toxicity LD₅₀” value is given as “greater than 400 mg/kg” in series [1] and more than 300 mg/kg in series [2]. The mode of inhibition entry in series [3] (Dixon Plot, enzyme from human placenta) is listed as “noncompetitive inhibition”. For the same molecule, in series [3] (setting [6]), the “specificity: inhibitive activity to enzyme from human placenta compared with enzyme from Flavobacterium” value was “much higher specificity to the enzyme derived from human placenta”.
For the molecule `CC[C@H](C)[C@H](NC(=O)[C@H](Cc1ccccc1)NC(=O)[C@@H](NC(=O)[C@H](Cc1c[nH]cn1)NC(=O)CNC(=O)CNC(=O)[C@H](Cc1ccccc1)NC(=O)[C@H](CC(C)C)NC(=O)[C@@H]1CC(=O)NCC(=O)N[C@@H](Cc2ccc(O)cc2)C(=O)N2CCC[C@H]2C(=O)N[C@@H](Cc2c[nH]c3ccccc23)C(=O)N[C@@H](Cc2c[nH]c3ccccc23)C(=O)N[C@@H](CC(=O)O)C(=O)N[C@@H](Cc2ccc(O)cc2)C(=O)N[C@@H](CCCNC(=N)N)C(=O)N1)[C@@H](C)O)C(=O)N[C@@H](CO)C(=O)N1CCC[C@H]1C(=O)O` [SNA-115] (GYPWWDYRDLFGGHTFISP-OH; lactam N-9), the IC50 is 0.35 µM in series [4] and 0.22 µM in series [5] (Table 1, enzyme from human placenta, read-out: IC₅₀ (µM) Human placenta). Further, in series [5] (setting [6]), the “specificity: inhibitive activity to enzyme from human placenta compared with enzyme from Flavobacterium” value is on record as “almost the same degree of inhibitive activity”.
Take `CN[C@@H]1C[C@H]2O[C@@](C)([C@@H]1OC)n1c3ccccc3c3c4c(c5c6ccccc6n2c5c31)C(=O)NC4` [Staurosporine]: the IC50 in series [5] is more than 107 µM. The “inhibitive activity to the enzyme derived from human placenta” value in series [5] (result in words) is recorded as “very weak inhibitive activity”.
